Assay results from patent US20260294874A1, “COMPOSITIONS COMPRISING MODULATORS OF RIBONUCLEOPROTEIN GRANULE FORMATION AND DISSOLUTION AND METHODS OF USE THEREOF” (University of Virginia Patent Foundation, priority 2023, published 2026).
“Also recorded” adds a separate entry of the source.

Assays:
Type in all cases: cell-based
[1] = test system: stress granules (G3BP1 foci) in HeLa cells; experiment: Immunofluorescence phenotypic screen for stress granules (α-G3BP1) in stressed HeLa cells; details: 2 h
Procedure: SuTEx compound treatments. Prior to treatments, cells were washed twice with warm phosphate-buffered saline (PBS) and exchanged with serum-free DMEM (supplemented with 1% L-glutamine) for at least 30 minutes at 37° C. with 5% CO2. Compounds were then added as 1000×DMSO stocks (10 μL for 10 cm dishes and 3 μL for 6-well dishes), plates were mixed gently, and cells were incubated for two hours. All compounds were thoroughly vortexed and sonicated for five minutes prior to addition to ensure complete solvation. For microscopy experiments, cultures were seeded at 150,000 cells in 3 mL of DMEM in 6-well THERMO SCIENTIFIC™ BIOLITE™ brand microwell plates (Catalog No. 12556004; Thermo Fisher Scientific Inc., Waltham, Massachusetts. United States of America). For collection, media was aspirated, and cells were washed once with cold PBS before scraping from plates. Cells were centrifuged at 500×g at 4° C. for 5 minutes and supernatant was removed. Cell pellets were resuspended in cold PBS (1 mL) and centrifuged at 1,400×g at 4° C. for 3 minutes. Supernatant was again removed, and pellets were then snap-frozen in liquid nitrogen and stored at −80° C. until needed.
Immunofluorescence. Immunofluorescence (IF) of HEK293T cells was performed as previously described in Ciancone et al., 2022. HeLa cells were seeded at 9.0×10^4 in a 24-well plate with 12-mm glass coverslips. The next day, the cells were treated with 25 μM SuTEx probe for 2 hours in DMEM medium without FBS. The cells were then treated with 75 μM NaAsO2 for 30 minutes and fixed with 3% paraformaldehyde in PBS for 15 minutes at room temperature (RT) and washed with PBS twice. The fixed cells were permeabilized with PBST (0.1% Triton X-100) for 15 minutes at room temperature and blocked with 5% goat serum in PBST for 30 minutes at RT. The cells were incubated with anti-G3BP1 antibody H-10 (Catalog No. sc-365338 at 1:200 dilution; Santa Cruz Biotechnology, Inc., Dallas, Texas, United States of America) for 2 hours at RT and washed with PBST (0.1% Tween-20) for 5 minutes three times. Next, cells were incubated with goat anti-mouse Alexa 594 antibody (Catalog No. 115-585-003 at 1:800 dilution; Jackson ImmunoResearch, West Grove, Pennsylvania, United States of America) for 30 minutes at RT. The cells were washed twice with PBST, stained with Hoechst 33342 (Catalog No. H3570 at […]; Thermo Fischer Scientific) in PBST for 5 minutes, and washed with PBS twice for 5 minutes. The coverslips were mounted in PROLONG™ Gold AntiFade Mountant (Catalog No. P36930, Thermo Fisher Scientific) and imaged using NIS Elements AR software and a Nikon Eclipse Ti microscope equipped with a ×100 objective and CMOS camera. […] A CellProfiler pipeline was developed to quantify the number of stress granules under each condition. Briefly, cells were recognized as blue^+ (nuclei) red^+ (G3BP1) objects, and the red^+ granules that meet the shape and size threshold were identified and counted. Cells on the border of linages were excluded from the analysis for more accurate quantification.
We used immunofluorescence (IF) detection for phenotypic screening of SuTEx compound activity on stress-induced PB and SG levels in cells (FIG. 1B). PBs were induced through glucose deprivation of HEK293T cells and detected by immunofluorescence with anti-enhancer of mRNA-decapping protein 4 (EDC4) as previously described (Kedersha & Anderson, 2007; Ciancone et al., 2022) (~4 vs 2 PBs/cell in −glucose and +glucose conditions, respectively; FIG. 8). EDC4 is an established PB marker for mammalian cells and is important for PB formation (Kedersha & Anderson, 2007; Luo et al., 2018). SGs were induced in HeLa cells by [COMPOUND LEFT OUT] treatments and detected by fluorescent staining with anti-Ras GTPase-activating protein-binding protein 1 (G3BP1) antibody (75 μM [COMPOUND LEFT OUT], 30 min; FIG. 9). G3BP1 foci have been used in previous IF studies to identify SGs in cells (Kedersha & Anderson, 2007). […]

HNRPK Y72 = molecular target: T1, HNRPK Y72 (Homo sapiens, UniProt P61978); experiment: Competitive ABPP SILAC LC-MS/MS chemical proteomics, HNRPK Y72; details: DMSO (light)/ligand (heavy)
T1 construct: liganded site Y72
Procedure: (§1) Preparation of SILAC proteomes for LC-MS/MS analysis. SILAC cell proteomes were fractionated to collect the supernatant and normalized to 2.3 mg/mL in PBS. ‘Heavy’ and ‘light’ proteomes were aliquoted (427 μL) and probe-modified proteins were conjugated to desthiobiotin-PEG-3-azide using copper-catalyze azide-alkyne cycloaddition, trypsinized into peptides using Trypsin/Lys-C Mix (Catalog No. V5071; Promega Corporation, Madison, Wisconsin, United States of America), enriched using PIERCE™ Avidin Agarose brand beads (Catalog No. 20219; Thermo Fisher Scientific Inc., Waltham, Massachusetts. United States of America), and prepared for nano-electrospray ionization-LC-MS/MS analysis as previously described in Hahm et al., 2020.
(§2) Data Analysis—Chemical Proteomics. Identification and analysis of peptides and proteins using LC-MS was accomplished using bioinformatics software and quality control parameter protocols as previously described in Hahm et al., 2020.
(§3) We performed quantitative liquid-chromatography tandem mass spectrometry (LC-MS/MS) chemical proteomic studies to identify the target protein and binding site(s) of SuTEx fragments with RNP granule modulating activity. […]
(§4) We detected ~8,700 probe-modified sites (Tyr and Lys) in our aggregate HeLa and HEK293T chemical proteomic analyses. […]

HSPB1 K123 = molecular target: T2, HSPB1 K123 (Homo sapiens, UniProt P04792); experiment: Competitive ABPP SILAC LC-MS/MS chemical proteomics, HSPB1 K123; details: 25 μM, 2 h; HHS-465 100 μM; DMSO (light)/ligand (heavy)
T2 construct: endogenous in cells; host or cells: SILAC cells (HeLa and HEK293T are named; HeLa inferred for HSPB1/EKT179, as SG modulators were profiled in HeLa)
T2 sequence (P04792 whole entry): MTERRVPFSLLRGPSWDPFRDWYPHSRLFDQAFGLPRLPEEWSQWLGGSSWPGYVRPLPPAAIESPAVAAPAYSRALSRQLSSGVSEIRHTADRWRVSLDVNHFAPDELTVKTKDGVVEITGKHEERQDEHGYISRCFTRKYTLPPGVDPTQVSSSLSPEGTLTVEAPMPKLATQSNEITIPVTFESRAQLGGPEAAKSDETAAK
Procedure: as §1, §2, §3, §4

EDC3 Y475 = molecular target: T3, EDC3 Y475 (Homo sapiens, UniProt Q96F86); experiment: Competitive ABPP SILAC LC-MS/MS chemical proteomics, EDC3 Y475; details: glucose-deprived HEK293T cells, 25 μM, 2 h
T3 sequence (Q96F86 1-508): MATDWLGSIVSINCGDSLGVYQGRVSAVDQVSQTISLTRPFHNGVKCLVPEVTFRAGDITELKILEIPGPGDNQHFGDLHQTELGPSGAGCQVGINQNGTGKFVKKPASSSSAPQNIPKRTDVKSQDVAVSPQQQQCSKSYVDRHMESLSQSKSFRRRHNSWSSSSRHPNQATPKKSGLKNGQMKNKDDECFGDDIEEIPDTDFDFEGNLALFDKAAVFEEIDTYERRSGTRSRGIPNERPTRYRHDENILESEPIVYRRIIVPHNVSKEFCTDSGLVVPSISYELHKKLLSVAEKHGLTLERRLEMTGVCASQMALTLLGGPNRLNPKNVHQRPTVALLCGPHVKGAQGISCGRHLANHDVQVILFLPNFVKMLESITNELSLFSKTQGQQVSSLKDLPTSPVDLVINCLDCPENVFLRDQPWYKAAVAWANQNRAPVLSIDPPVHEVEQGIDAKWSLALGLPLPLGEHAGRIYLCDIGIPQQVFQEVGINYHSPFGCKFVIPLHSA
Procedure: as §1, §2
We performed quantitative liquid-chromatography tandem mass spectrometry (LC-MS/MS) chemical proteomic studies to identify the target protein and binding site(s) of SuTEx fragments with RNP granule modulating activity. […] SILAC light and heavy cells (HEK293T and HeLa) were treated with experimental conditions used for phenotypic screening including the SuTEx ligand pretreatment (25 μM, 2 h) followed by PB (glucose-deprivation, 15 min) and SG induction (75 μM [COMPOUND LEFT OUT], 30 min). Afterwards, cells were lysed, soluble proteomes treated with HHS-465 SuTEx probe (100 μM, 1 h), a global Tyr/Lys-reactive probe used previously for RNP granule investigations (Ciancone et al., 2022), and samples processed to probe-modified peptides for LC-MS/MS analysis as previously reported (Huang et al., 2021), shown in FIG. 10.
as §4

recombinant EDC3 = molecular target: T4, recombinant EDC3 (Homo sapiens, UniProt Q96F86); experiment: Competitive gel-based ABPP, HHS-465 probe labeling of recombinant EDC3 in HEK293T cells; details: 25 μM, 2 h (FIG. 4F); 0.1-100 μM for concentration dependence (FIG. 4D); HHS-465 100 μM, 1 h, RT
T4 construct: FLAG; expressed in transfected cells; host or cells: HEK293T
T4 sequence (Q96F86 1-508): T3 sequence (Q96F86 1-508)
Excerpt: FIGS. 4A-4F. Discovery of a SuTEx ligand for the hyper-reactive EDC3 Y475 site. (FIG. 4A) Overlap of liganded sites from SuTEx PB modulators with reported RNA granule induction-sensitive lysine and tyrosine sites (RISKYs; Ciancone et al., 2022). The five overlapping sites were further compared to previously reported hyper-RISKY sites (Ciancone et al., 2022) resulting in the identification of the tyrosine-475 (Y475) site on EDC3. (FIG. 4B) Representative immunofluorescence images depicting decreased PBs and increased SGs in AHL-030-treated cells under stress conditions. EKT235 is shown as a negative control. See FIGS. 8 and 9 for additional details. (FIG. 4C) Representative MS1 extracted ion chromatograms (EICs) showing EDC3 Y475 (i.e., amino acid 2 of the peptide sequence […]; SEQ ID NO: 1, which corresponds to amino acids 474-500 of the human enhancer of mRNA-decapping protein 3 isoform 1 polypeptide of GENBANK® Accession No. NP_001135915.1) is liganded by AHL-030 but not EKT235 [SILAC ratio or SR>2 for DMSO vehicle (light, red)/SuTEx fragment ligand (heavy, blue) treatment conditions]. Enrichment (HHS-465/DMSO) and 1:1 (HHS-465/HHS-465) controls are shown. SRs are calculated as the integrated area under the curve ratio of light-to-heavy peptide. Data are representative of n=2-3 biologically independent replicates. […] EDC3-expressing HEK293T cells were pretreated with varying concentrations of AHL-030 (0.1-100 μM, 2 hours) followed by lysis and probe labeling of soluble proteomes with HHS-465 (100 μM, 1 h, RT). The in situ IC50 for EDC3 probe labeling inhibition by AHL-030 was estimated to be ~6 μM. […] Data shown are mean±SEM and representative of n=3 biologically independent replicates. […] Western blots comparing recombinant expression of EDC3 (α-FLAG) and loading controls (α-GAPDH) are shown. Data are representative of n=2 biologically independent replicates.
Among the candidate PB-modulating SuTEx compounds, we focused on AHL-030 because of its PB-inhibitory, SG-enhancing activity in stressed cells and ability to ligand the EDC3 Y475 site (SR >2; FIGS. 4B and 4C). Importantly, we identified a restricted number of reproducibly liganded sites (7 in total) in addition to EDC3 Y475 in chemoproteomic profiling studies of AHL-030 (FIG. 12). We further confirmed AHL-030 as an EDC3 ligand using competitive activity-based protein profiling (ABPP; Grams & Hsu, 2022). Recombinant EDC3-expressing HEK293T cells were treated with a panel of RNP granule modulators including AHL-030 and the negative control compound EKT235 to evaluate structure-activity relationships (SAR, 25 μM compounds, 2 h). Cells were lysed and soluble proteomes labeled with HHS-465 (100 μM, 1 h, RT) followed by CuAAC with rhodamine-azide, SDS-PAGE and in-gel fluorescence scanning. […] Using the in vitro IC50, we calculated the lipophilic efficiency (LipE) of AHL-030 to be ~7, which falls in the range of acceptable lipophilicity in relation to potency (Leeson & Springthorpe, 2007).

O=S(=O)(c1ccc(C(F)(F)F)cc1)n1cc(-c2ccc(F)cc2F)nn1 [EKT166, 4-(2,4-Difluorophenyl)-1-((4-(trifluo•·omethyl)phenyl)sulfonyl)-1H-1,2,3-triazole]
effect on SGs (in words) ([1]; 25 μM): enriched activity; also recorded: inhibited SGs | inhibition at 25 µM ([1]; Homo sapiens, read-out: reduction/inhibition of SGs/cell): > 70% | SILAC ratio (SR), HNRPK Y72 (HNRPK Y72): > 2

O=S(=O)(C1CC1)n1cc(-c2cccc(F)c2)nn1 [EKT179, 1-(Cyclopropylsulfonyl)-4-(3-fluorophenyl)-1H-1,2,3-triazole]
SILAC ratio (SR), HSPB1 K123 (HSPB1 K123): > 2

O=S(=O)(C1CC1)n1cc(-c2ccc(-c3ccccc3)cc2)nn1 [EKT235, 4-([1,1′-Biphenyl]-4-yl)-1-(cyclopropylsulfonyl)-1H-1,2,3-triazole]
liganding of EDC3 Y475 (in words) (EDC3 Y475): not | inhibition of HHS-465 probe labeling of recombinant EDC3 (in words) (recombinant EDC3): largely inactive
